Experimental findings from publication PMC11211567, “Tetrandrine inhibits aldosterone synthesis by covalently targeting CYP11A1 to attenuate hypertension” (Frontiers in Pharmacology, 2024) are described below.

This assay concerns the target T1, CYP11A1 (Homo sapiens, UniProt P05108).
T1 construct: recombinant WT human CYP11A1, pET-28a(+), C-terminal His6, coexpressed with GroEL/ES in E. coli, purified; MST
T1 sequence (P05108 40-521): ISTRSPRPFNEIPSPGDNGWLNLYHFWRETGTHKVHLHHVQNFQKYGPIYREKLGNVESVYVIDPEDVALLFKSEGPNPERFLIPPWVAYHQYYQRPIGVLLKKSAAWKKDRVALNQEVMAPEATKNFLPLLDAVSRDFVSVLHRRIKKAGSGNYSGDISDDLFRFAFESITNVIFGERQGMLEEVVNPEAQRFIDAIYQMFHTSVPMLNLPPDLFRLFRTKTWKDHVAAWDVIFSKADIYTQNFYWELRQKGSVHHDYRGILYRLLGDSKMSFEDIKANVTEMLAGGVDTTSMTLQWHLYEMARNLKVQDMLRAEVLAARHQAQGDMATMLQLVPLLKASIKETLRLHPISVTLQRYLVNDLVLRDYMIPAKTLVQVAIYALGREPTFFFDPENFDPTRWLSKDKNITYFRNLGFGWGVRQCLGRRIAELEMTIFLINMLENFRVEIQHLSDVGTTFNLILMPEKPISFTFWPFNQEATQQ
Description: MST with purified protein; in-gel competition with Tet probe; CO difference spectra; cell activity IC50 […]. It is filed as binding.

SMILES strings stand for the structures.

By Kd is commonly meant the free concentration of one partner at which half of the binding sites on the other are occupied at equilibrium, for simple one-to-one binding. Low readings indicate tighter binding, high ones weaker binding. As to `COc1ccc2cc1Oc1ccc(cc1)C[C@H]1c3cc(c(OC)cc3CCN1C)Oc1c(OC)c(OC)cc3c1[C@H](C2)N(C)CC3` [Tet, Tetrandrine], binding was put at a Kd of 12.5 µM.
